Data published in US6713629B2 (dated 2004).

melting point: 95 to 96 °C
SMILES: CC1(c2ccccc2)SC(=S)N(Nc2ccccc2)C1=NOC(=O)Nc1ccc(Cl)c(Cl)c1 (stereo not shown)
